Assay results as given in patent publication US12637468B2, “Substituted [1,2,4]triazolo[4,3-b]pyridazines as GABAA receptor modulators” (SHANGHAI SIMR BIOTECHNOLOGY CO., LTD., priority 2019, dated 2026).
≈ marks a conversion by molar mass, not a printed value.

How the values were obtained:
α5-GABAA receptor = target: T1, α5-GABAA receptor (Homo sapiens, UniProt P18507+P31644); assay: Cell-level screening: whole cell patch clamp, inverse agonist efficacy on α5-GABAA receptor expressed in HEK293; format: cell-based; conditions: drug 100 nM, GABA 0.05 μM, HEK293 expressing α5, β3 and γ2 subunits, clamped at −60 mV; read-out: Compound inverse agonist efficacy %
T1 construct: expressed in transfected cells; host or cells: HEK293, monoclonal stably transfected line
T1 sequence (P31644 32-462): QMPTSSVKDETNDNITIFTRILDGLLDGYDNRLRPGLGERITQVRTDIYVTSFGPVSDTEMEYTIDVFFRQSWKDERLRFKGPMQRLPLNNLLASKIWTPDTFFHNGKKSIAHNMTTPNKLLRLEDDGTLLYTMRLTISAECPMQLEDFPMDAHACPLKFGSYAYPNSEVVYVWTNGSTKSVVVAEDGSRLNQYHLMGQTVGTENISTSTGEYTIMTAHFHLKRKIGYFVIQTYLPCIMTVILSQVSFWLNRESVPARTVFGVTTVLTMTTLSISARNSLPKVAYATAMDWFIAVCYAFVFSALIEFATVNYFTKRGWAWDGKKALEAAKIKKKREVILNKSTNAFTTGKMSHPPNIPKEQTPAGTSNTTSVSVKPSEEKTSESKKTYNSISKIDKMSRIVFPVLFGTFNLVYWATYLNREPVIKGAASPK
T1 sequence (P28472 26-473 partner): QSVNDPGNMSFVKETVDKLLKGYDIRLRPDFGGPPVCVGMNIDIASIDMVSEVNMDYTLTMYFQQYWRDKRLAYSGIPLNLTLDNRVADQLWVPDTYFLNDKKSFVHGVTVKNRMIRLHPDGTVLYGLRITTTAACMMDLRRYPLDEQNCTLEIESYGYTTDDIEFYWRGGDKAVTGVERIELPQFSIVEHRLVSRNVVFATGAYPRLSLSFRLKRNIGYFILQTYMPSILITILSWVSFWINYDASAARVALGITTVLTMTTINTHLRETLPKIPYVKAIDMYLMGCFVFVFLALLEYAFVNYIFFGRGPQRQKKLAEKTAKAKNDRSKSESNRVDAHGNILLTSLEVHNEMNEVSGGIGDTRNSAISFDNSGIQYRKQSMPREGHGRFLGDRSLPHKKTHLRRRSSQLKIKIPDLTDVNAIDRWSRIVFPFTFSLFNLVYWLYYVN
T1 sequence (P18507 40-467 isoform P18507-1 limits assumed): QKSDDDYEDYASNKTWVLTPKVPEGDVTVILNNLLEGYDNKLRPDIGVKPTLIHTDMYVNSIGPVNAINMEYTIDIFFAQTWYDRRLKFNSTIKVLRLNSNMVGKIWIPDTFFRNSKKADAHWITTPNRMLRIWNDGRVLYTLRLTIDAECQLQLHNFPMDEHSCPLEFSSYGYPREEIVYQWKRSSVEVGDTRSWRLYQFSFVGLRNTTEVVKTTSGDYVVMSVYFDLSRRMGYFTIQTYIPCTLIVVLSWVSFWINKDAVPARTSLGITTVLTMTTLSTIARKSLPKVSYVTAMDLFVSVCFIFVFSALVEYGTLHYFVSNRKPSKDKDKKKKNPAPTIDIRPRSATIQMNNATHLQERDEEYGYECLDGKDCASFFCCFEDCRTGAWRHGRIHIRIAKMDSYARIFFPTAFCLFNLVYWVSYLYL
Method in brief: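 Whole-cell patch clamp at −60 mV on HEK293 stably expressing α5β3γ2, pH 7.4 extracellular/CsCl internal solutions. Current evoked by 0.05 μM GABA, then compound in GABA solution; screening at 100 nM, dose-response 0.3–300 nM. Inverse agonist efficacy as % change of GABA current.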

[1] = Thermodynamic solubility in simulated intestinal fluid (TS in FaSSIF); format: physicochemical; conditions: thermodynamic from solid, 37° C.
Method in brief: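 About 0.3 mg solid shaken in 1.5 mL FaSSIF-V2 at 1000 rpm, 37° C, 4 hours, in duplicate, then filtered. Filtrate quantified by HPLC-UV against 1 μM-200 μM standards diluted from 10 mM DMSO stock.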

[2] = Pharmacokinetic experiment on rats: brain entry ratio (brain tissue/plasma concentration ratio); format: in vivo; conditions: rat, male SD rats, po 10 mg/kg, Table 7
Experimental: The drug concentration ratio of plasma and brain tissue in the pharmacokinetic experiment on rats was used to evaluate the entry of compounds into brain. All rats fasted overnight before administration; the test compounds were dissolved and administered orally (po) to male SD rats, with 3 rats in each group. After administration of the test compounds, blood was collected by jugular vein puncture at 0.5 hours with about 0.25 mL per sample. The whole brain was taken at the same time. The plasma and brain tissue drug concentration were determined by LC-MS/MS method, and the pharmacokinetic parameters were calculated by Phoenix WinNonlin7.0. The dosage was 10 mg/kg, and the vehicle was 5% CMC-Na aqueous solution.

| SMILES | inhibition at 0.1 µM (α5-GABAA receptor) [%] | solubility thermodynamic at 4 h [1] [µg/mL] | Kp at 0.5 h [2] |
| --- | --- | --- | --- |
| COc1cc2nnc(-c3cc(C)on3)n2nc1OCc1ccc2c(n1)CCN(C1COC1)C2 [Embodiment 84, 3-(7-Methoxy-6-((6-(oxetan-3-yl)-5,6,7,8-tetrahydro-1,6-naphthyridin-2-yl)methoxy)-[1,2,4]triazolo[4,3-b]pyridazin-3-yl)-5-methylisoxazole] | 39.6 | 197 (≈ 438 µM) | 0.0045 |
| COc1cc2nnc(-c3cc(C)on3)n2nc1OCc1ccc(C2(F)CN(C3COC3)C2)cn1 [Embodiment 128] | 41.2 | 118 (≈ 253 µM) | 0.032 |
| COCCCOc1ccc(COc2nn3c(-c4noc(C)n4)nnc3cc2OC)nn1 [Embodiment 129] | 45.8 | 85.4 (≈ 199 µM) | 0.047 |
| COCc1ccc(COc2nn3c(-c4cc(C)on4)nnc3cc2OC)nn1 [Embodiment 151] | 55.8 | 175 (≈ 456 µM) | 0.02 |
| COc1cc2nnc(-c3cc(C)on3)n2nc1OCc1ccc(OC2CCOCC2)nn1 [Embodiment 152] | 39.3 | 44 (≈ 100 µM) | 0.0243 |
| COc1cc2nnc(-c3cc(C)on3)n2nc1OCc1ccc(OC2COC2)nn1 [Embodiment 153] | 49.4 | 189 (≈ 460 µM) | 0.02 |
| COc1cc2nnc(-c3cc(C)on3)n2nc1OCc1ccc(OC2CCOC2)nn1 (stereo not drawn) [Embodiment 154] | 45.2 | 177 (≈ 416 µM) | 0.0257 |
| COc1cc2nnc(-c3cc(C)on3)n2nc1OCc1ccc2c(n1)CN(C)C2 [Embodiment 160, 3-(7-Methoxy-6-((6-methyl-6,7-dihydro-5H-pyrrolo[3,4-b]pyridin-2-yl)methoxy)-[1,2,4]triazolo[4,3-b]pyridazin-3-yl)-5-methylisoxazole] | 49.3 | 246 (≈ 625 µM) | 0.0441 |
| COCCOCc1ccc(COc2nn3c(-c4cc(C)on4)nnc3cc2OC)nn1 [Embodiment 166] | 49.9 | 300 (≈ 702 µM) | 0.01 |
| COc1cc2nnc(-c3cc(C)on3)n2nc1OCc1ccc2c(n1)CCN(C(CO)CO)C2 [Embodiment 185] | 45.6 | 239 (≈ 511 µM) | 0 |
| COc1cc2nnc(-c3cc(C)on3)n2nc1OCc1ccc2c(n1)CCN(C1CCOCC1)C2 [Embodiment 186] | 56 | 95.4 (≈ 200 µM) | 0.0442 |
| COc1cc2nnc(-c3cc(C)on3)n2nc1OCc1ccc2c(n1)CCN(Cc1cc(C)on1)C2 [Embodiment 187] | 50.4 | 176 (≈ 361 µM) | 0.0293 |
| COCc1cn2nc(COc3nn4c(-c5cc(C)on5)nnc4cc3OC)ccc2n1 [Embodiment 213] | 59.5 | 30.2 (≈ 71.4 µM) | 0.0179 |
| COc1cc2nnc(-c3cc(C)on3)n2nc1OCc1ccc2c(n1)CN(C1CCOCC1)C2 [Embodiment 253] | 56.1 | 38.9 (≈ 83.9 µM) | 0.0133 |
